Experimental data taken from article PMC4535329 (Bioorganic & medicinal chemistry letters, 2015).
≈ marks a conversion by molar mass, not a printed value.

Experiments:
mGlu4 = mGlu4 (Homo sapiens, UniProt Q14833); assay: mGlu selectivity; format: cell-based
mGlu6 = mGlu6 (Homo sapiens, UniProt O15303); assay: mGlu selectivity; format: cell-based
mGlu7 = mGlu7 (Homo sapiens, UniProt Q14831); assay: mGlu selectivity; format: cell-based
mGlu1 = mGlu1 (Homo sapiens, UniProt Q13255); assay: mGlu selectivity; format: cell-based
mGlu8 = mGlu8 (Homo sapiens, UniProt O00222); assay: mGlu selectivity; format: cell-based
Ca channel = assay: Cardiovascular safety pharmacology: Ca channel; format: cell-based; conditions: read-out: Ca channel IC50
Na channel = assay: Cardiovascular safety pharmacology: Na channel; format: cell-based; conditions: read-out: Na channel IC50
Solubility = format: physicochemical
[1] = tested on: amphetamine-induced hyperlocomotion (AHL); assay: Reversal of amphetamine-induced hyperlocomotion; format: in vivo, male, Sprague Dawley rats
mGlu3 = mGlu3 (Homo sapiens, UniProt Q14832); assay: mGlu selectivity: mGlu3 antagonist activity; format: cell-based
mGlu2 = mGlu2 (Homo sapiens, UniProt Q14416); assay: mGlu selectivity; format: cell-based
human mGlu5 = human mGlu5 (Homo sapiens, UniProt P41594); assay: Calcium mobilization assay using HEK293 expressing human mGlu5; format: cell-based
mGlu5 = assay: Leftward fold-shift of a full glutamate concentration-response curve; format: cell-based; conditions: human and rat receptors, equal magnitude
[2] = Predicted hepatic clearance; format: in vitro ADME; conditions: rat
[3] = Predicted hepatic clearance; format: in vitro ADME; conditions: human

human mGlu5, sequence (P41594 21-1212): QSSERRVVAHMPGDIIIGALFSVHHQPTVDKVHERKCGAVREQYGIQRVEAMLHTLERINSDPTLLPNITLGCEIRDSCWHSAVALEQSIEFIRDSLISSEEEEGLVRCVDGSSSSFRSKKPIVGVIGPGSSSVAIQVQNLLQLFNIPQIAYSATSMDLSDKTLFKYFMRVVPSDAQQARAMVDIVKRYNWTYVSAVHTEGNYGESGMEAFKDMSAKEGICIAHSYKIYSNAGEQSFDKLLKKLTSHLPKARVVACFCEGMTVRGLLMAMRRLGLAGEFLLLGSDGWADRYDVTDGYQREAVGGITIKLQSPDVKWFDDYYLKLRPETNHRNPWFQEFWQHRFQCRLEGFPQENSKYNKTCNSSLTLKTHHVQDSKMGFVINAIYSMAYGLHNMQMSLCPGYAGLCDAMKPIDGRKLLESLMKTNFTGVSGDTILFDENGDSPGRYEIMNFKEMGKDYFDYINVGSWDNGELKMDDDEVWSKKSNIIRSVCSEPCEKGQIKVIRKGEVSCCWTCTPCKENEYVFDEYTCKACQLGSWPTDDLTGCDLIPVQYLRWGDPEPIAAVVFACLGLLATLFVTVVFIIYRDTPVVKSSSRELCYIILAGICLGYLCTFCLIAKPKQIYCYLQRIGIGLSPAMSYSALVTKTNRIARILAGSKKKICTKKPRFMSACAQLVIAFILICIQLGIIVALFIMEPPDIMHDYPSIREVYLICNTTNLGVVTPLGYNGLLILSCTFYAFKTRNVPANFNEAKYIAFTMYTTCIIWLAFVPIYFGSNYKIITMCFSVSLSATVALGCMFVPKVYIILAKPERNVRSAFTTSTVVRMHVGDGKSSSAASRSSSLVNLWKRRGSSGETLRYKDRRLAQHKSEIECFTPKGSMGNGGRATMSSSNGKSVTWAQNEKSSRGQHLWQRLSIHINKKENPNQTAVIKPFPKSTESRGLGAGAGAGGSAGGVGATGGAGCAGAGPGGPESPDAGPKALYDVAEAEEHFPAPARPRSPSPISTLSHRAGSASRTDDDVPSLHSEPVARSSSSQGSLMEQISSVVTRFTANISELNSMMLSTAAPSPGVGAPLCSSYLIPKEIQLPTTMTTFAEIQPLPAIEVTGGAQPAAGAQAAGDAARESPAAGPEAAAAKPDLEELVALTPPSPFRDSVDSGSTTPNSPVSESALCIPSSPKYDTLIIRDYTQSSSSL
mGlu3, sequence (Q14832 23-879): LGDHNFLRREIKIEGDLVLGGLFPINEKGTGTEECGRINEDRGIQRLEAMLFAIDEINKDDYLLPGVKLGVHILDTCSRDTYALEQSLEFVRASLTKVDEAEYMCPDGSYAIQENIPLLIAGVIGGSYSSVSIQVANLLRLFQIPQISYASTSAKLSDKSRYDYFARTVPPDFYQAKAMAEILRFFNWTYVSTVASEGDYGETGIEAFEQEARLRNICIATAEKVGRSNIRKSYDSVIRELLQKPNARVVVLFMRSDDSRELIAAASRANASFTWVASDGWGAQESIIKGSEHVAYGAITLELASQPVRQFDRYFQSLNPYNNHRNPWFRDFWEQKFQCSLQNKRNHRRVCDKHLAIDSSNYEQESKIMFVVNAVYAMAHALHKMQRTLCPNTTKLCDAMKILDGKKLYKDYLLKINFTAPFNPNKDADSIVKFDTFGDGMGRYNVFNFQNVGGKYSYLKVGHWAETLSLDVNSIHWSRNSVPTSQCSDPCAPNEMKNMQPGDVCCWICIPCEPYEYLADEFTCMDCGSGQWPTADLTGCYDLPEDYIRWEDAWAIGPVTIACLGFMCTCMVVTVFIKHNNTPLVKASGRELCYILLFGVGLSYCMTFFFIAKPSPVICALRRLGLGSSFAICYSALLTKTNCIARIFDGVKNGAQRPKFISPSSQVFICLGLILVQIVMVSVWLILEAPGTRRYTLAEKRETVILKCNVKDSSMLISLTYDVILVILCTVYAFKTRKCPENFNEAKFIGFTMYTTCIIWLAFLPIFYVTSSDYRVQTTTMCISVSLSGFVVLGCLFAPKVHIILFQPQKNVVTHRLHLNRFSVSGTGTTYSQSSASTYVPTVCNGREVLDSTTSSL
mGlu1, sequence (Q13255 19-1194): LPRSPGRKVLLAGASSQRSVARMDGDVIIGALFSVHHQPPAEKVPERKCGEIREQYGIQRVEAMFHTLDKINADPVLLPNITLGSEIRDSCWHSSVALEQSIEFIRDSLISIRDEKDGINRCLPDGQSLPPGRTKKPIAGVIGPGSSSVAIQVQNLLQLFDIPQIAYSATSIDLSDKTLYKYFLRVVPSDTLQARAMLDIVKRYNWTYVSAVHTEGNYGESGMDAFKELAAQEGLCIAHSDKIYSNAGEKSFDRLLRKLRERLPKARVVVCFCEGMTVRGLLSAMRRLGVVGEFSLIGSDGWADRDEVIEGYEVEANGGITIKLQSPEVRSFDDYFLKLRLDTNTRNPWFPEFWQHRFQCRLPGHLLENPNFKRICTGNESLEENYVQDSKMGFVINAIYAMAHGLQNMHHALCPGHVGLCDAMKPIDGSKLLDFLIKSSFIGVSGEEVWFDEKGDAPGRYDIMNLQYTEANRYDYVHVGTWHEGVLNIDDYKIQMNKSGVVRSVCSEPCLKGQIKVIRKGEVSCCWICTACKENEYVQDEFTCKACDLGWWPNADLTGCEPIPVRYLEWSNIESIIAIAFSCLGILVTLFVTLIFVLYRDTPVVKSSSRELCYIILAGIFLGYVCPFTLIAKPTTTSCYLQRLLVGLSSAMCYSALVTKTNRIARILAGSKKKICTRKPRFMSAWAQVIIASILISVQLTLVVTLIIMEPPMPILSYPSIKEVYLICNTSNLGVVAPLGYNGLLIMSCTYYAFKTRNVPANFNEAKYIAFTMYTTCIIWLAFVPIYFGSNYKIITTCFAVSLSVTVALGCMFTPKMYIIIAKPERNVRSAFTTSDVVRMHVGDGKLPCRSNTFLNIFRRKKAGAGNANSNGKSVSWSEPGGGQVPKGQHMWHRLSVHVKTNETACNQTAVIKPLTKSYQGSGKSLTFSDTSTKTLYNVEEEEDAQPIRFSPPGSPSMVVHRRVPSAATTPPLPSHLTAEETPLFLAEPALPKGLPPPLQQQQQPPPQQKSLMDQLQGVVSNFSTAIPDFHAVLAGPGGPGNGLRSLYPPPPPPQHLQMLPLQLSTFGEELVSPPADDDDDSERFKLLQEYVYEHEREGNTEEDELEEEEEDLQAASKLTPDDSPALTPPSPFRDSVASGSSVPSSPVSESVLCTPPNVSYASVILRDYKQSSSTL
mGlu8, sequence (O00222 34-908): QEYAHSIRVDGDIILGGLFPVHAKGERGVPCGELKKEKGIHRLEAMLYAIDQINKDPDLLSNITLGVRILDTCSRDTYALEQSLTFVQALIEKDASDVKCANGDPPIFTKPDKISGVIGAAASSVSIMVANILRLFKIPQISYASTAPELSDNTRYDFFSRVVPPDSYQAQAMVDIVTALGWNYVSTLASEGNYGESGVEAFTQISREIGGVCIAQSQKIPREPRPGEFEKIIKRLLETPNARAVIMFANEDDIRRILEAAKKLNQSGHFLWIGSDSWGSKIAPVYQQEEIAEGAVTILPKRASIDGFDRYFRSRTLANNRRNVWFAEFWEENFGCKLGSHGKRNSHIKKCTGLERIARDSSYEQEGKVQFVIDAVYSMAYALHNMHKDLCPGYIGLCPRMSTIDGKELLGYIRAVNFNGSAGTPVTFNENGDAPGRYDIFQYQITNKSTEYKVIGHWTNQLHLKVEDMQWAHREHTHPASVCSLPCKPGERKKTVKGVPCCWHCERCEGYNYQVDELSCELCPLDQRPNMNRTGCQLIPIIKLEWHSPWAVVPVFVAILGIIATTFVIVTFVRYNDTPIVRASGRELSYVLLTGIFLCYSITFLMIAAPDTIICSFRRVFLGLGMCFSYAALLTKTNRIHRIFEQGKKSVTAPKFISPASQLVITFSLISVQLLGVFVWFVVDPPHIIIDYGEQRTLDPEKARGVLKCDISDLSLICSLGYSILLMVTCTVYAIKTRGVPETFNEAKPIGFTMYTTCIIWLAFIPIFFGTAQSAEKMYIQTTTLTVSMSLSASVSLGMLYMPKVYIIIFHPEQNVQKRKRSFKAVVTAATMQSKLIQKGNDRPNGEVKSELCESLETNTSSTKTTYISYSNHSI
mGlu4, sequence (Q14833 33-912): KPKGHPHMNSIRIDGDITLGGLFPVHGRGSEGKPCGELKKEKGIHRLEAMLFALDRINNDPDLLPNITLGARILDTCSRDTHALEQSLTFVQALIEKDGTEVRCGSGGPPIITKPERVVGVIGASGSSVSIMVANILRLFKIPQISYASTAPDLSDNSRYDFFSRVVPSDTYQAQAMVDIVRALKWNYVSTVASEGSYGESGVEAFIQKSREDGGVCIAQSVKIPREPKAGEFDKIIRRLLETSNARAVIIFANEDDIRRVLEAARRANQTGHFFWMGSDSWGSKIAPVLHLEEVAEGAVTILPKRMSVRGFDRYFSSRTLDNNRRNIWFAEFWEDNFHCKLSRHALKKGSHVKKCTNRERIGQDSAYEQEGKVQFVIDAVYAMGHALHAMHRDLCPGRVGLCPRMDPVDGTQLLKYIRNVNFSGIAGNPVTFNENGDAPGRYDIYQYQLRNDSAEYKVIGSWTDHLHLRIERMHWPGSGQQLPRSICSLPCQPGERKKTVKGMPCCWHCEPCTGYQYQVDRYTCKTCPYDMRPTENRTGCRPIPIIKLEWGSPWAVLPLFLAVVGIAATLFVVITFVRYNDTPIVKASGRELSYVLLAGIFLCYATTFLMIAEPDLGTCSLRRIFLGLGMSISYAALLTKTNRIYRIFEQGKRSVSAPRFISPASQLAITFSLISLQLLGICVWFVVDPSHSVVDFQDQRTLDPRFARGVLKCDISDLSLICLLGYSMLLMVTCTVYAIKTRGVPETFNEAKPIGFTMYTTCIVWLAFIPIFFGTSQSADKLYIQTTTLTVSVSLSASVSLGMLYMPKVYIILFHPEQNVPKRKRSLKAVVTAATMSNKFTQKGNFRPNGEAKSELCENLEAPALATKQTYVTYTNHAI

Structure (SMILES): O=C(c1ccc(F)cc1)N1CCc2nc(COc3cccc(F)c3)oc2C1 [4b]
- activity versus mGlu4 (mGlu4): > 10 µM
- activity versus mGlu6 (mGlu6): > 10 µM
- activity versus mGlu7 (mGlu7): > 10 µM
- activity versus mGlu1 (mGlu1): > 10 µM
- activity versus mGlu8 (mGlu8): > 10 µM
- IC50 (Ca channel): > 10 µM
- IC50 (Na channel): > 10 µM
- solubility (Solubility; FaSSIF): 10 µg/mL (≈ 27 µM)
- solubility (Solubility; SGF): 10 µg/mL (≈ 27 µM)
- solubility, fold lower than 1 (Solubility; relative to 1): 3 ×
- minimum effective dose in AHL ([1]; rat, po): 30 mpk
- IC50 (mGlu3): 0.41 µM
- mGlu3 Glu min (mGlu3; % Glu min): 8%
- activity versus mGlu2 (mGlu2): > 10 µM

Structure (SMILES): O=C(c1cc2ccccc2[nH]1)N1CCc2nc(COc3ccccc3)oc2C1 [11a]
- mGlu5 PAM activity (in words) (human mGlu5): inactive

Structure (SMILES): O=C(c1c[nH]c2ccccc12)N1CCc2nc(COc3ccccc3)oc2C1 [11c]
- solubility (in words) (Solubility): poor solubility

Structure (SMILES): O=C(c1n[nH]c2ccccc12)N1CCc2nc(COc3ccccc3)oc2C1 [11e]
- solubility (in words) (Solubility): poor solubility

Structure (SMILES): O=C(c1n[nH]c2ncccc12)N1CCc2nc(COc3ccccc3)oc2C1 [11h]
- fold-shift (mGlu5): 7.3–9.3 x
- ago-PAM activity (human mGlu5): modest ago-PAM activity
- ligand efficiency (human mGlu5): 0.31
- predicted hepatic clearance CLhep [2]: 36 mL/min/kg
- predicted hepatic clearance CLhep [3]: 9.1 mL/min/kg
- MED in AHL, fold higher than for 1 ([1]; relative to 1): 3 fold
